How the values were obtained:
WI-38 cell line = experiment: MTT cytotoxicity towards non-tumorigenic cells; format: cell-based, human; conditions: for IC50: WI-38, MTT, non-tumorigenic human lung fibroblast, mean ± SD of three experiments; for S. I. WI-38/A549: selectivity index, IC50 WI-38 / IC50 A549
Description: The cytotoxic activity of all synthesized pyridines 5a–l were assessed against non-tumorigenic human lung fibroblast WI-38 cell line to investigate their safety, using the MTT colorimetric assay.

MDA-MB-435 = experiment: NCI one-dose SRB growth inhibition; format: cell-based; conditions: Homo sapiens, Melanoma, 48 h, read-out: GI% MDA-MB-435
In short: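 Run under the NCI Developmental Therapeutics Program protocol at a single dose, with 48 h drug exposure. Growth and viability read by sulforhodamine B staining.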

SMILES | IC50 (WI-38 cell line) | S. I. WI-38/A549 (WI-38 cell line) | inhibition at 10 µM (MDA-MB-435)
Cc1nc(-c2cccs2)ccc1NC(=O)Nc1ccc(Cl)cc1 [Compound 5i, 1-(4-Chlorophenyl)-3-(2-methyl-6-(thiophen-2-yl)pyridin-3-yl)urea] | 129 ± 12 µM | 14.8 | < 10%
Cc1nc(-c2ccc(Cl)cc2)ccc1NC(=O)Nc1cccc(C(F)(F)F)c1 [Compound 5e, 1-(6-(4-Chlorophenyl)-2-methylpyridin-3-yl)-3-(3-(trifluoromethyl)phenyl)urea] | 130 ± 9.22 µM | 11.0 | < 10%
COc1ccc(NC(=O)Nc2ccc(-c3ccc(Cl)cc3)nc2C)cc1 [Compound 5f, 1-(6-(4-Chlorophenyl)-2-methylpyridin-3-yl)-3-(4-methoxyphenyl) urea] | 116 ± 9.61 µM | 14.7 | < 10%
Cc1nc(-c2ccc(F)cc2)ccc1NC(=O)Nc1cccc(C(F)(F)F)c1 [Compound 5a, 1-(6-(4-Fluorophenyl)-2-methylpyridin-3-yl)-3-(3-(trifluoromethyl)phenyl)urea] | 93.5 ± 5.28 µM | 13.7 | 19%
Cc1nc(-c2ccc(F)cc2)ccc1NC(=O)Nc1ccc2c(c1)OCO2 [Compound 5d, 1-(Benzo[d][1, 3]dioxol-5-yl)-3-(6-(4-fluorophenyl)-2-methylpyridin-3-yl)urea] | 107 ± 7.03 µM | 8.6 | < 10%
Cc1nc(-c2ccc(Cl)cc2)ccc1NC(=O)Nc1ccc2c(c1)OCO2 [Compound 5g, 1-(Benzo[d][1,3]dioxol-5-yl)-3-(6-(4-chlorophenyl)-2-methylpyridin-3-yl)urea] | 63.5 ± 5.08 µM | 9.4 | < 10%
Cc1nc(-c2cccs2)ccc1NC(=O)Nc1ccc(F)cc1 [Compound 5h, 1-(4-Fluorophenyl)-3-(2-methyl-6-(thiophen-2-yl)pyridin-3-yl)urea] | 143 ± 8.38 µM | 13.4 | < 10%
CCOC(=O)c1ccc(NC(=O)Nc2ccc(-c3ccc(F)cc3)nc2C)cc1 [Compound 5c, Ethyl 4-(3-(6-(4-fluorophenyl)-2-methylpyridin-3-yl)ureido)benzoate] | 123 ± 10.2 µM | 12.8 | < 10%
CCOC(=O)c1ccc(NC(=O)Nc2ccc(-c3cccs3)nc2C)cc1 [Compound 5j, Ethyl 4-(3-(2-methyl-6-(thiophen-2-yl)pyridin-3-yl)ureido)benzoate] | 107 ± 7.02 µM | 13.3 | < 10%

From article PMC6366416, “Synthesis and in vitro anticancer activity of certain novel 1-(2-methyl-6-arylpyridin-3-yl)-3-phenylureas as apoptosis-inducing agents” (Journal of Enzyme Inhibition and Medicinal Chemistry, 2019)
